The source of these data is patent US20230257372A1 (CHONG KUN DANG PHARMACEUTICAL CORP., priority 2020, published 2023).

pIC50: −log10 of the molar value. Read-outs that look alike come from different tables or passages of the source.

The target in one assay is T1, human recombinant HDAC1 (Homo sapiens, UniProt Q13547).
T1 construct: purchased Enzo Life Science, Inc. BML-SE456
Description: HDAC1 enzyme activity inhibition (HDAC Fluorimetric Drug Discovery Kit). In kind it is biochemical. The following applies: read-out: HDAC1. In outline: (§1)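 Compounds in 5-fold dilution series were incubated with […] enzyme and 10 μM substrate at 30° C for 60 minutes. Fluor de Lys Developer II was then added for 30 minutes to stop the reaction and develop the fluorescent signal.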

Another assay has as its target T2, human recombinant HDAC6 (Homo sapiens, UniProt Q9UBN7).
T2 construct: purchased Calbiochem Inc. 382180
T2 sequence (Q9UBN7 1-1215): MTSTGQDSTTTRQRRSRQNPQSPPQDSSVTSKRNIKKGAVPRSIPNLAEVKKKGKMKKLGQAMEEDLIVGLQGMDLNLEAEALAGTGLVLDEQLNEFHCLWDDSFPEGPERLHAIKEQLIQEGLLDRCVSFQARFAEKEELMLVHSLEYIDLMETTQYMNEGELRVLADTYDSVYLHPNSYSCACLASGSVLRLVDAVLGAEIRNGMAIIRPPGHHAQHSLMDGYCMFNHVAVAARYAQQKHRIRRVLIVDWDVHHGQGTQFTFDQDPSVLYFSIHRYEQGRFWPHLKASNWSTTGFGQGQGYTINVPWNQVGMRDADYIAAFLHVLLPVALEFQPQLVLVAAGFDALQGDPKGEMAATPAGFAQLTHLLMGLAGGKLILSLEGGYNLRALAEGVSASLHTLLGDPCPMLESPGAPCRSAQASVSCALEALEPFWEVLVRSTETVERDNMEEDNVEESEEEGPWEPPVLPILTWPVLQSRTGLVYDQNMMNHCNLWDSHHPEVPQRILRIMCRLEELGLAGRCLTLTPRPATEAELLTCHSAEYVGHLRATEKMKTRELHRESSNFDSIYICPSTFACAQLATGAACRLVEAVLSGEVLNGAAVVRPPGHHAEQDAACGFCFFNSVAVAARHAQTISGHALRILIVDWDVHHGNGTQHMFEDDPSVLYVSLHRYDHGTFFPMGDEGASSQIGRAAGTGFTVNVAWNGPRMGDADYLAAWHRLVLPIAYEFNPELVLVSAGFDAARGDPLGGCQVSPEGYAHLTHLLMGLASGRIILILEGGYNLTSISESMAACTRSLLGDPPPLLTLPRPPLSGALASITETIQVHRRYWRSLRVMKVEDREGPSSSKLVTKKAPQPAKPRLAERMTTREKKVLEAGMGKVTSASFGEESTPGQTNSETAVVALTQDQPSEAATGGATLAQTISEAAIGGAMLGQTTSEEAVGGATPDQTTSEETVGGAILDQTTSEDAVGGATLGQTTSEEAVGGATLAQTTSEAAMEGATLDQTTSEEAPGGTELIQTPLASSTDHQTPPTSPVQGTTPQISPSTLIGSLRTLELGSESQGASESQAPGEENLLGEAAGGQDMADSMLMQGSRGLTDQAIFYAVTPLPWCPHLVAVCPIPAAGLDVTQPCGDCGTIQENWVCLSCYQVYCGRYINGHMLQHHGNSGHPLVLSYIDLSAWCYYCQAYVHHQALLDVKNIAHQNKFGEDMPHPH
Description: HDAC6 enzyme activity inhibition (HDAC Fluorimetric Drug Discovery Kit). In kind it is biochemical. In outline: as §1

[1] abbreviates: human recombinant HDAC1, IC50 calculated with GraphPad Prism.
The mark [2] stands for this setting: human recombinant HDAC6, IC50 calculated with GraphPad Prism.
The mark [3] stands for this setting: human recombinant HDAC1, Fluor de Lys substrate, 30° C. 60 minutes.
[4] abbreviates: human recombinant HDAC6, same protocol as HDAC1.

T1 sequence (Q13547 whole entry): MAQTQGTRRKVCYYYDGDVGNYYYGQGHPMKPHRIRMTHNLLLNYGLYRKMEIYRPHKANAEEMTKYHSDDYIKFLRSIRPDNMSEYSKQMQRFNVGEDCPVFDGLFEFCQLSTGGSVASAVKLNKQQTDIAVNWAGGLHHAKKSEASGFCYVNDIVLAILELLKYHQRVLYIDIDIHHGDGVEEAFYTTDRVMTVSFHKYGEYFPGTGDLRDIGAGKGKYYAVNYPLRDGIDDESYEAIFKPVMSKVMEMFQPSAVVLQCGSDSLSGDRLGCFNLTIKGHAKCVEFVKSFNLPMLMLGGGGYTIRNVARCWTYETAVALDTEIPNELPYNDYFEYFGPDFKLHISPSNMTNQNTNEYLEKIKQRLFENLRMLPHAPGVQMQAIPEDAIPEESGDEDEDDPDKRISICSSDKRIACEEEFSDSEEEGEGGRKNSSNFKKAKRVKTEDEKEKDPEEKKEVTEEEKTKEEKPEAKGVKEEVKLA

Take `CN1CC(c2cccc(-c3cn(Cc4ccc(-c5nnc(C(F)F)o5)cc4F)nn3)c2)C1` [Compound 4460, 2-(difluoromethyl)-5-(3-fluoro-4-((4-(3-(1-methylazetidin-3-yl)phenyl)-1H-1,2,3-triazol-1-yl)methyl)phenyl)-1,3,4-oxadiazole]: the pIC50 was less than 4.30 on human recombinant HDAC1 (setting [1]) and 6.47 at human recombinant HDAC6 (setting [2]). Moreover, the “HDAC6 selectivity (fold)” value at human recombinant HDAC6 (HDAC1 IC50 / HDAC6 IC50) stood at 148 fold.
The matching figures for `FC(F)c1nnc(-c2ccc(Cn3cc(-c4cccnc4)nn3)nc2)o1` [Compound 3835, 2-(difluoromethyl)-5-(6-((4-(pyridin-3-yl)-1H-1,2,3-triazol-1-yl)methyl)pyridin-3-yl)-1,3,4-oxadiazole]: less than 4.30, 7.37 and 1170 fold.
For `CCN1CCN(c2cccc(-c3cn(Cc4ccc(-c5nnc(C(F)F)o5)cn4)nn3)c2)CC1` [Compound 3988, 2-(difluoromethyl)-5-(6-((4-(3-(4-ethylpiperazin-1-yl)phenyl)-1H-1,2,3-triazol-1-yl)methyl)pyridin-3-yl)-1,3,4-oxadiazole], the results for the pIC50 at human recombinant HDAC1 (setting [1]) and at human recombinant HDAC6 (setting [2]) were less than 4.30 and 7.97, respectively. The “HDAC6 selectivity (fold)” value on human recombinant HDAC6 (HDAC1 IC50 / HDAC6 IC50) was found to be 4716 fold.
As to `FC(F)c1nnc(-c2ccc(Cn3cc(-c4ccc5c(c4)CN(C4COC4)C5)nn3)nc2)o1` [Compound 4543, 2-(difluoromethyl)-5-(6-((4-(2-(oxetan-3-yl)isoindolin-5-yl)-1H-1,2,3-triazol-1-yl)methyl)pyridin-3-yl)-1,3,4-oxadiazole], the pIC50 at human recombinant HDAC1 (setting [3]) is less than 4.30; on human recombinant HDAC6 (setting [4]), 7.42. Further, at human recombinant HDAC6 (HDAC6 over HDAC1), the “HDAC6 selectivity (fold)” value came out at 1326 fold.
Turning to `CN(C)[C@H]1CCN(Cc2ccc(-c3cn(Cc4ccc(-c5nnc(C(F)F)o5)cc4F)nn3)cc2)C1` [Compound 4604, (S)-1-(4-(1-(4-(5-(difluoromethyl)-1,3,4-oxadiazol-2-yl)-2-fluorobenzyl)-1H-1,2,3-triazol-4-yl)benzyl)-N,N-dimethylpyrrolidin-3-amine], the pIC50 was less than 4.30 on human recombinant HDAC1 (setting [3]) and 7.67 on human recombinant HDAC6 (setting [4]). On human recombinant HDAC6 (HDAC6 over HDAC1), the “HDAC6 selectivity (fold)” value is given as 2347 fold.
For the compound `Fc1cc(-c2nnc(C(F)F)o2)ccc1Cn1cc(-c2ccc(F)c(N3CCN(C4COC4)CC3)c2)nn1` [Compound 4427, 2-(difluoromethyl)-5-(3-fluoro-4-((4-(4-fluoro-3-(4-(oxetan-3-yl)piperazin-1-yl)phenyl)-1H-1,2,3-triazol-1-yl)methyl)phenyl)-1,3,4-oxadiazole], the pIC50 at human recombinant HDAC1 (setting [1]) was less than 4.30; on human recombinant HDAC6 (setting [2]), 7.04. Also, at human recombinant HDAC6 (HDAC1 IC50 / HDAC6 IC50), the “HDAC6 selectivity (fold)” value is on record as 548 fold.
Regarding `Fc1cc(-c2nnc(C(F)F)o2)ccc1Cn1cc(-c2ccc(CN3CC[C@@H](F)C3)nc2)nn1` [Compound 17774, (R)-2-(difluoromethyl)-5-(3-fluoro-4-((4-(6-((3-fluoropyrrolidin-1-yl)methyl)pyridin-3-yl)-1H-1,2,3-triazol-1-yl)methyl)phenyl)-1,3,4-oxadiazole], the figures for the pIC50 on human recombinant HDAC1 (setting [3]) and at human recombinant HDAC6 (setting [4]) were less than 4.30 and 7.25, respectively. Also, the “HDAC6 selectivity (fold)” value on human recombinant HDAC6 (HDAC6 over HDAC1) is listed as 897 fold.
On to `Fc1cc(-c2nnc(C(F)F)o2)ccc1Cn1cc(-c2csc(CN3CCCC3)c2)nn1` [Compound 18187, 2-(difluoromethyl)-5-(3-fluoro-4-((4-(5-(pyrrolidin-1-ylmethyl)thiophen-3-yl)-1H-1,2,3-triazol-1-yl)methyl)phenyl)-1,3,4-oxadiazole], for which the pIC50 is less than 4.30 at human recombinant HDAC1 (setting [3]) and 7.08 on human recombinant HDAC6 (setting [4]). Moreover, the “HDAC6 selectivity (fold)” value at human recombinant HDAC6 (HDAC6 over HDAC1) is 605 fold.
Regarding `Fc1cc(-c2nnc(C(F)F)o2)ccc1Cn1cc(C2(F)COC2)nn1` [Compound 4282, 2-(difluoromethyl)-5-(3-fluoro-4-((4-(3-fluorooxetan-3-yl)-1H-1,2,3-triazol-1-yl)methyl)phenyl)-1,3,4-oxadiazole], the figures for the pIC50 on human recombinant HDAC1 (setting [1]) and at human recombinant HDAC6 (setting [2]) were less than 4.30 and 6.62, respectively. Further, the “HDAC6 selectivity (fold)” value at human recombinant HDAC6 (HDAC1 IC50 / HDAC6 IC50) was 209 fold.
For `FC(F)c1nnc(-c2ccc(Cn3cc(-c4cccc(NC5CCCCC5)c4)nn3)cc2)o1` [Compound 4324, N-cyclohexyl-3-(1-(4-(5-(difluoromethyl)-1,3,4-oxadiazol-2-yl)benzyl)-1H-1,2,3-triazol-4-yl)aniline], the pIC50 on human recombinant HDAC1 (setting [1]) was less than 4.30; at human recombinant HDAC6 (setting [2]), 6.53. The “HDAC6 selectivity (fold)” value on human recombinant HDAC6 (HDAC1 IC50 / HDAC6 IC50) was 170 fold.
On to `CC(C)N1Cc2cccc(-c3cn(Cc4ccc(-c5nnc(C(F)F)o5)cn4)nn3)c2C1` [Compound 4597, 2-(difluoromethyl)-5-(6-((4-(2-isopropylisoindolin-4-yl)-1H-1,2,3-triazol-1-yl)methyl)pyridin-3-yl)-1,3,4-oxadiazole], for which the pIC50 on human recombinant HDAC1 (setting [3]) was less than 4.30; at human recombinant HDAC6 (setting [4]), 7.21. The “HDAC6 selectivity (fold)” value on human recombinant HDAC6 (HDAC6 over HDAC1) was 813 fold.
Take `CCN1CCN(c2cc(-c3cn(Cc4ccc(-c5nnc(C(F)F)o5)cc4F)nn3)ccn2)CC1` [Compound 4634, 2-(difluoromethyl)-5-(4-((4-(2-(4-ethylpiperazin-1-yl)pyridin-4-yl)-1H-1,2,3-triazol-1-yl)methyl)-3-fluorophenyl)-1,3,4-oxadiazole]: the results for the pIC50 on human recombinant HDAC1 (setting [3]) and at human recombinant HDAC6 (setting [4]) were less than 4.30 and 7.62, respectively. On human recombinant HDAC6 (HDAC6 over HDAC1), the “HDAC6 selectivity (fold)” value is on record as 2074 fold.
As for `Cc1ccncc1-c1cn(Cc2ccc(-c3nnc(C(F)F)o3)cn2)nn1` [Compound 4181, 2-(difluoromethyl)-5-(6-((4-(4-methylpyridin-3-yl)-1H-1,2,3-triazol-1-yl)methyl)pyridin-3-yl)-1,3,4-oxadiazole], the pIC50 is less than 4.30 at human recombinant HDAC1 (setting [1]) and 7.45 at human recombinant HDAC6 (setting [2]). On human recombinant HDAC6 (HDAC1 IC50 / HDAC6 IC50), the “HDAC6 selectivity (fold)” value is given as 1400 fold.
In the case of `Fc1cc(-c2nnc(C(F)F)o2)ccc1Cn1cc(-c2ccc(CN3CC[C@H](F)C3)nc2)nn1` [Compound 17773, (S)-2-(difluoromethyl)-5-(3-fluoro-4-((4-(6-((3-fluoropyrrolidin-1-yl)methyl)pyridin-3-yl)-1H-1,2,3-triazol-1-yl)methyl)phenyl)-1,3,4-oxadiazole], the pIC50 at human recombinant HDAC1 (setting [3]) is less than 4.30; at human recombinant HDAC6 (setting [4]), 7.19. The “HDAC6 selectivity (fold)” value on human recombinant HDAC6 (HDAC6 over HDAC1) is 769 fold.
On to `CCN1CC(N2CCC(c3cccc(-c4cn(Cc5ccc(-c6nnc(C(F)F)o6)cc5F)nn4)c3)CC2)C1` [Compound 4295, 2-(difluoromethyl)-5-(4-((4-(3-(1-(1-ethylazetidin-3-yl)piperidin-4-yl)phenyl)-1H-1,2,3-triazol-1-yl)methyl)-3-fluorophenyl)-1,3,4-oxadiazole], for which the pIC50 on human recombinant HDAC1 (setting [1]) is less than 4.30; at human recombinant HDAC6 (setting [2]) it was 7.34. Besides, the “HDAC6 selectivity (fold)” value on human recombinant HDAC6 (HDAC1 IC50 / HDAC6 IC50) is on record as 1106 fold.
As for `FC(F)c1nnc(-c2ccc(Cn3cc(-c4cccc(CN5CCC5)c4)nn3)nc2)o1` [Compound 3963, 2-(6-((4-(3-(azetidin-1-ylmethyl)phenyl)-1H-1,2,3-triazol-1-yl)methyl)pyridin-3-yl)-5-(difluoromethyl)-1,3,4-oxadiazole], the pIC50 at human recombinant HDAC1 (setting [1]) is less than 4.30; on human recombinant HDAC6 (setting [2]) it was 7.23. For the same compound, the “HDAC6 selectivity (fold)” value at human recombinant HDAC6 (HDAC1 IC50 / HDAC6 IC50) was determined as 841 fold.
For `CC(C)N1CC(c2cn(Cc3ccc(-c4nnc(C(F)F)o4)cn3)nn2)C1` [Compound 3952, 2-(difluoromethyl)-5-(6-((4-(1-isopropylazetidin-3-yl)-1H-1,2,3-triazol-1-yl)methyl)pyridin-3-yl)-1,3,4-oxadiazole], the pIC50 was less than 4.30 on human recombinant HDAC1 (setting [1]) and 6.19 on human recombinant HDAC6 (setting [2]). For the same compound, at human recombinant HDAC6 (HDAC1 IC50 / HDAC6 IC50), the “HDAC6 selectivity (fold)” value came out at 76 fold.
Consider `CCN1CC(C(=O)Nc2cccc(-c3cn(Cc4ccc(-c5nnc(C(F)F)o5)cn4)nn3)c2)C1` [Compound 4464, N-(3-(1-((5-(5-(difluoromethyl)-1,3,4-oxadiazol-2-yl)pyridin-2-yl)methyl)-1H-1,2,3-triazol-4-yl)phenyl)-1-ethylazetidin-3-carboxamide], for which the pIC50 at human recombinant HDAC1 (setting [1]) is less than 4.30; on human recombinant HDAC6 (setting [2]) it was 7.52. The “HDAC6 selectivity (fold)” value at human recombinant HDAC6 (HDAC1 IC50 / HDAC6 IC50) is reported as 1650 fold.
